This passage reports GI50 and TGI results from PubChem BioAssay (NCI).

Holding throughout (assay): growth of human tumour cells (NCI), 48 h
The test system of experiment [1] is SK-MEL-28 melanoma.
The subject of experiment [2] is 786-0 renal.
Experiment [3] has as its system BT-549 breast.
The test system of experiment [4] is LOX IMVI melanoma.
Experiment [5] has as its system MOLT-4 leukemia.
The subject of experiment [6] is A498 renal.
Experiment [7] relates to HCC-2998 colon.
Experiment [8] relates to SF-268 CNS.
The subject of experiment [9] is A549 NSCLC.
In experiment [10] the test system is NCI-H23 lung.

“And” between values parts separate entries of the source, which are not always exact repeats. Equal values may be shown once.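 Tested at 5 concentrations; 48 h exposure; 96-well plates; endpoints linearly interpolated, else capped at highest concentration. GI50 = concentration required for 50% inhibition of growth. TGI: total growth inhibition.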

On to `COc1ccc(OC)c(/C=C/c2nc(=S)n(-c3ccc(Cl)cc3)[nH]2)c1`, for which the GI50 in experiment [1] is 11.1 µM; in experiment [2], 7.17 µM; in [3] it was 9.38 µM; in experiment [4], 5.02 µM; in [5], 7.74 µM; in [6] it was 6.66 µM. Further, the GI50 is 13.3 µM in experiment [7], 17.5 µM in [8], 9.07 µM in [9] and 5.88 µM in experiment [10]. In addition, the TGI in [1], in experiment [2], in [3], in experiment [4], in [5] and in experiment [6] was greater than 100 µM each time. Also, the TGI in [7], in [8], in experiment [9] and in experiment [10] was greater than 100 µM each time.

With `O=C1/C(=C\c2ccccc2)CN(C(=O)CCN2CCCCC2)C/C1=C/c1ccccc1`, the TGI in [1] was 5.69 µM; in experiment [2], 4.7 µM; in [3], 1.94 µM; in [4] it was 0.842 µM; in [5] it was 0.714 µM; in [6], 7.43 µM. In addition, the TGI was 2.81 µM in [7], 4.51 µM in experiment [8], 10.9 µM in [9] and 4.51 µM in experiment [10].

In the case of `c1ccc(-c2[nH]ncc2-c2ccnc(-c3ccc(OCCn4ccnc4)cc3)c2)nc1`, the GI50 is greater than 25 µM in experiment [1]; greater than 25 µM in experiment [2]; 22.5 µM in experiment [3]; greater than 25 µM in experiment [4]; 10 µM in experiment [5]; greater than 25 µM in experiment [6]. The GI50 in experiment [7], in experiment [8], in [9] and in experiment [10] was greater than 25 µM throughout. Further, the TGI in experiment [1], in experiment [2], in experiment [3], in experiment [4], in experiment [5] and in experiment [6] was greater than 25 µM in each case. Further, the TGI in experiment [7], in experiment [8], in experiment [9] and in experiment [10] was greater than 25 µM each time.

`CC1=C(C(=O)Nc2ccccc2)C(c2ccc(N(C)C)cc2)C(C(=O)Nc2ccccc2)=C(C)N1`: the TGI in [1] is 36.6 µM; in experiment [2], greater than 100 µM; in [3], greater than 88.3 µM; in experiment [4], greater than 100 µM; in [5], greater than 96.6 µM; in experiment [6], greater than 100 µM. Besides, the TGI is 23.4 µM in [7], greater than 71.6 µM in experiment [8], 98.9 µM in [9] and greater than 100 µM in experiment [10].

Turning to `Cc1ccc(O)cc1Nc1ccnc2ccc(S(C)(=O)=O)cc12`, the GI50 in [1] was 1.98 µM; in experiment [2] it was 1.87 µM; in experiment [3], 5.06 µM; in [4], 0.516 µM; in [5], greater than 19.8 µM; in [6], 1.75 µM. The GI50 is 10 µM in experiment [7], 2.67 µM in experiment [8], 2.76 µM in experiment [9] and 5.97 µM in experiment [10]. The TGI in experiment [1] was greater than 25 µM; in [2], greater than 25 µM; in [3] it was 17.8 µM; in experiment [4] it was 3.89 µM; in experiment [5] it was greater than 25 µM; in experiment [6], 6.18 µM. Also, the TGI in experiment [7], in experiment [8], in experiment [9] and in [10] was greater than 25 µM throughout.

Regarding `COC1N(C2CC(O)C(CO)O2)C(=O)NC(=O)C1(F)Br` (centres undefined), the GI50 in [1] is 30 µM; in experiment [2], 31.9 µM; in experiment [4], 4.47 µM; in experiment [5], 13.3 µM; in experiment [6] it was 0.821 µM; in [7] it was 1.14 µM. Moreover, the figures for the GI50 in experiment [8], in experiment [9] and in [10] were 18.2 µM, 3.22 µM and 13.3 µM, respectively. For the same compound, the TGI in experiment [1] was 50 µM and > 100 µM; in experiment [2] it was 50 µM and > 100 µM; in experiment [3], greater than 100 µM; in experiment [4], 50 µM and > 100 µM; in [5] it was 15.8 µM and > 100 µM; in experiment [6], 50 µM and > 65 µM. Also, the TGI in experiment [7] is 50 µM and 98 µM; in experiment [8], 50 µM and > 100 µM; in experiment [9] it was 50 µM and > 100 µM; in experiment [10], 50 µM and > 100 µM.

For the compound `Cc1c(C(=N)C(C#N)C#N)c(=N)oc2c1ccc1ccccc12`, the GI50 in experiment [1] is 22.5 µM; in experiment [2], 29.1 µM; in experiment [3], 32.2 µM; in experiment [4] it was 11.9 µM; in experiment [5], 21.7 µM; in [6], 9.83 µM. The GI50 is 18 µM in experiment [7], 46.5 µM in experiment [8], 32.9 µM in experiment [9] and 16.8 µM in experiment [10]. The TGI in experiment [1] was 60.8 µM; in experiment [2] it was greater than 100 µM; in experiment [3] it was greater than 100 µM; in experiment [4] it was 38.2 µM; in experiment [5], greater than 100 µM; in experiment [6] it was 96 µM. Besides, the TGI was 39.3 µM in [7], greater than 100 µM in experiment [8], greater than 100 µM in [9] and greater than 100 µM in experiment [10].

Turning to `CCN1C(=S)N(CC)C2C1NC(=S)N2/N=C/C=C/c1ccccc1OC` (centres undefined), the GI50 in experiment [1] was 1.11 µM; in [2] it was 0.67 µM; in experiment [3], 0.899 µM; in experiment [4], 0.488 µM; in experiment [5] it was 0.464 µM; in experiment [6] it was 0.0831 µM. Besides, the GI50 in [7] is 0.392 µM; in experiment [8], 0.913 µM; in experiment [9] it was 0.503 µM; in [10], 0.466 µM. Also, the TGI in [1] was greater than 100 µM; in experiment [2] it was greater than 52.3 µM; in [3] it was 8.56 µM; in experiment [4], 12.7 µM; in experiment [5] it was greater than 54.7 µM; in experiment [6] it was 0.715 µM. The TGI in experiment [7] was 25.3 µM; in [8] it was 44.8 µM; in [9], greater than 100 µM; in experiment [10], greater than 100 µM.

Consider `CCN(C)c1nc(N(C)CC)c2nc(N(C)CC)nc(N(C)CC)c2n1`, for which the TGI in [1], in experiment [2], in [3], in experiment [4], in experiment [5] and in experiment [6] was greater than 100 µM in each case. The TGI in [7], in [8], in experiment [9] and in experiment [10] was greater than 100 µM each time.

Turning to `O=C1/C(=C/c2ccc(Cl)c(Cl)c2)CN(C(=O)CCN2CCC(=NO)CC2)C/C1=C\c1ccc(Cl)c(Cl)c1`, the GI50 in experiment [1] was 1.64 µM; in [2], 0.609 µM; in [3] it was 0.829 µM; in experiment [4] it was 0.256 µM; in experiment [5], 0.458 µM; in experiment [6] it was 1.44 µM. The GI50 in experiment [7] was 0.807 µM; in experiment [8], 1.06 µM; in [9], 2.15 µM; in [10], 1.04 µM. In addition, the TGI amounted to 3.07 µM in experiment [1]; 1.45 µM in [2]; 1.84 µM in experiment [3]; 0.612 µM in experiment [4]; 2.26 µM in experiment [5]; 2.89 µM in experiment [6]. Also, the TGI in experiment [7] came out at 2.11 µM; in experiment [8], 2.88 µM; in experiment [9] it was 6.47 µM; in experiment [10] it was 3.01 µM.

`COc1ccc(C(=O)c2cc(OC)c(OC)c(OC)c2OC)cc1O`: the GI50 was 6.42 µM in [1]; 4.35 µM in [2]; 5.52 µM in experiment [3]; 4.95 µM in experiment [4]; 4.56 µM in experiment [5]; 6.31 µM in experiment [6]. For the same compound, the GI50 in experiment [7] is 6.15 µM; in [8], 4.19 µM; in experiment [9], 5.4 µM; in experiment [10], 3.71 µM. Besides, the TGI in experiment [1], in experiment [2], in experiment [3], in experiment [4], in [5] and in experiment [6] was greater than 100 µM in each case. Besides, the TGI in [7] is 65.1 µM; in experiment [8], greater than 100 µM; in [9], greater than 100 µM; in [10] it was greater than 100 µM.

As to `Cc1nn(-c2ccc(Cl)cc2)c2ncnc(N/N=C/c3ccccc3O)c12`, the GI50 in experiment [1] was 1.56 µM and 0.494 µM; in experiment [2] it was 0.768 µM and 0.509 µM; in experiment [3], 1.31 µM and 0.57 µM; in experiment [4], 0.389 µM and 0.251 µM; in experiment [5] it was 0.518 µM and 0.326 µM; in [6], 12.3 µM and 3.23 µM. The GI50 in experiment [7] was 0.464 µM and 0.742 µM; in [8] it was 0.401 µM and 0.312 µM; in [9] it was 1.77 µM and 0.699 µM; in experiment [10] it was 2.05 µM and 0.721 µM. For the same compound, the TGI is greater than 100 µM in [1]; 7.55 µM and 5.84 µM in experiment [2]; 57.9 µM and > 100 µM in experiment [3]; 11.9 µM and 10.2 µM in experiment [4]; greater than 100 µM in experiment [5]; 70.1 µM and 23.5 µM in experiment [6]. Besides, the TGI in [7] is greater than 100 µM; in experiment [8], 15.9 µM and > 37.3 µM; in [9] it was 17.2 µM and 16 µM; in experiment [10], greater than 55 µM.
